Assay results published in publication PMC12067444, “Synthesis and Pharmacological Characterization of Novel Peripheral Cannabinoid-1 Receptor Blockers Based on a Tricyclic Scaffold” (Journal of Medicinal Chemistry, 2025).

Assays:
[1] = Tissue distribution after chronic oral administration in diet-induced obese mice; type: in vivo; conditions: C57Bl/6J, mouse, brain; 1 mg/kg PO for 24 days, DIO mice, 24 h after last dose; read-out: brain concentration after chronic treatment
Procedure: Tissue distribution after chronic administration was conducted similarly, except tissue collection was performed 24 h after the last drug administration and analyzed in the same manner as previously described.
Supplementary F igure 2. BNS808 biodistribution and pharm acokinet ics aft er chronic P O adm inist rat ion. The accumulation of BNS808 in organs/plasma was evaluated by analyzing the BNS808 levels in the plasma, brain, and liver post-chronic administration of 1 mg/kg PO for 24 days in diet-induced obese mice. Data r epr esent the mean ± SE M of 4 mice per gr oup.
(1 picture or pasted object on this page, not shown here)

[2] = Protein binding in mouse brain, equilibrium dialysis; conditions: mouse
Procedure: (§1) Protein binding of test compound in mouse brain using equilibrium dialysis […]
(§2) method. Solution A (0. 5 mM) was prepared by mixing 10 µL of a 10 mM stock solution […]
(§3) with 190 µL of DMSO. Subsequently, Solution B (0.02 mM) was prepared by adding […]
(§4) 8 µL of solution A to 192 µL of 0.05 M sodium phosphate buffer. The final concentration of DMSO in Solution B was 4%.
(§5) A 96-well plate was initially prepared by dispensing 380 µL aliquots of brain […]
(§6) tissue into wells designated for the brain while t h e buffer was added to the remaining […]
(§7) wells to serve as a control. Subsequently, 20 µL of Solution B (containing 0.02 mM of […]
(§8) test and reference compounds) was spiked into the pre-loaded brain samples in the […]
(§9) plate. This step yielded a final test concentration of 1 µM, containing 0.2% DMSO. A duplicate system was establi shed for the dialysis sampl es wherein brain tissu e was prepared against buffer. Initially, 100 µL aliquots of blank dialysis buffer were applied to the receiver side of the dialysis chambers. Subsequently, 100 µL aliquots of the brain […]
(§10) tissue spiked with te st and reference compounds were applied to the donor side of the […]
(§11) T0 brain samples for initial concentrations were prepared in duplicate. A 25µL […]
(§12) aliquot of the brain spiked with test and reference compounds was transferred into a 96- […]
(§13) well sample preparation plate. An equivalent volume of blank buffer was then added […]
(§14) to each well. Af ter the 5-hour incubation period, aliquots of 25 µL wer e taken f r om t h e […]
(§15) dialysis apparatus's donor and receiver sides and transferred into new sample […]
(§16) preparation plates. An equal volume of the opposite matrix (blank buffer to brain and […]
(§17) vice versa) was added to each well, resulting in a final volume of 50 µL in each well.
(§18) The samples (both T0 and f i v e h) were then quenched with 200 µL of acetonitrile […]
(§19) containing internal standard (IS) and vortexed at 600 rpm for 10 minutes. After […]
(§20) vortexing, the samples were centrifuged at 5594 × g for 15 minutes. Subsequently, 50 […]
(§21) µL of the supernatants were transferred to a new 96-well plate and mixed with 50 µL […]
(§22) of Milli- Q water. T he sample plates wer e cover ed and stor ed in a f r eezer ( -20 ℃) until […]
(§23) respectively. For data analysis, the following equations wer e used:
(§24) % Bound = 100 × ([Donor]5h -[ Receiver] 5h) / [Donor] 5h
(§25) % Recovery= 100 × ([Donor]5h +[Receiver] 5h) / [Initial] 0h
(§26) Undiluted Fu (%) = (1/D) / [(1/Fu2-1 ) + 1/ D ]
(§27) Whereas; D: Dilution factor = Dilution factor of brain: 4

[3] = test system: mouse brain tissue; experiment: as above
Procedure: as §1, §2, §3, §4, §5, §6, §7, §8, §9, §10, §11, §12, §13, §14, §15, §16, §17, §18, §19, §20, §21, §22, §23, §24, §25, §26, §27

[4] = test system: TA98; experiment: Mini-Ames assay, strain TA98; type: cell-based; conditions: for F value: fold vs DMSO; for Growth of lawn: replicates 1-3;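 as to solubility: P0 means no precipitate in solution and no crystal growth on plates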
Procedure: Mini Am es assay. To conduct the assay, top agar was melted with a microwave and maintained at a temper atur e ≥47 °C in a water bath. T he assay was performed using a heat block set to 45 °C ± 2 °C. 12 × 75 mm test tubes were prepared in duplicates. For each concentration, the following components were added sequentially to a test tube:
[…] The mixture was vortexed and then dispensed into w ells using a dispo sable pipette. The plates wer e then incubated at 37±2 °C for approximately 48 to 72 hours.
BBbbbb BBBBbbbb BBBB = AAAAbbbbbbAAbb nnnnnnbbbbbb bboo bbbbAAbbbbbbbbnnbbbb oobbbb bbbb eeee dd bbbbbb AAbbbbnn gg AAAAbbbbbbAAbb nnnnnnbbbbbb bbBB bbbbAAbbbbbbbbnnbbbb BBbbbb DDDDDDDD nn bbAAbbbbaaAAbb AAbbbbnnaa The mutagenicity of the compound was determined by evaluating the number of revertant colonies in strains TA98 and TA100. A compound was […]
related and if the fold increase in revertants (F) was equal to or greater than 2 for […]
background lawn growth on the agar plates. A scoring system ranging from 0 to 4 […]
growth, respectively. A score of 4 signified full '100%' growth. […]
background lawn and required magnification for visualization. […]

Question: For `O=S(=O)(NC1CCCOc2c1nn(-c1ccccc1Cl)c2-c1ccc(Cl)cc1)c1ccc(Cl)cc1` (centres unmarked) [BNS808, 4-chloro-N-[2-(2-chlorophenyl)-3-(4-chlorophenyl)-5,6,7,8-tetrahydrooxepino[3,2-c]pyrazol-8-yl]benzenesulfonamide], which concentration at 24 h [1] is on record?
Answer: ~20 ng/g

Question: What about the recovery at 5 h, 1 µM [2] of the same molecule?
Answer: 81.8%

Question: What about the “protein binding in mouse brain (category)” value ([3]; equilibrium dialysis, 1 µM, 5 h) of the same molecule?
Answer: extremely high protein binding and high

Question: What about the “Fraction of bound (%)” value ([3]; mouse brain, diluted homogenate, 5 h) of the same molecule?
Answer: 100%

Question: And the “Undiluted Bound (%)” value ([3]; mouse brain, dilution factor 4)?
Answer: 100.0%

Question: And the “Number of revertants MEAN” value ([4]; TA98, +S9, 31.25 μg/well)?
Answer: 10.67

Question: And the solubility ([4]; TA98, +S9, 31.25 μg/well)?
Answer: P0

Question: And the F value ([4]; TA98, +S9, 31.25 μg/well)?
Answer: 0.97

Question: What about the Growth of lawn ([4]; TA98, +S9, 31.25 μg/well) of the same molecule?
Answer: 4 (A score of 4 signified full '100%' growth)

Question: What about the “Number of revertants MEAN” value ([4]; TA98, +S9, 62.5 μg/well) of the same molecule?
Answer: 11.33

Question: And the solubility ([4]; TA98, +S9, 62.5 μg/well)?
Answer: P0

Question: What about the F value ([4]; TA98, +S9, 62.5 μg/well) of the same molecule?
Answer: 1.03

Question: And the Growth of lawn ([4]; TA98, +S9, 62.5 μg/well)?
Answer: 4 (A score of 4 signified full '100%' growth)

Question: What about the “Number of revertants MEAN” value ([4]; TA98, +S9, 125 μg/well) of the same molecule?
Answer: 11.33

Question: What about the solubility ([4]; TA98, +S9, 125 μg/well) of the same molecule?
Answer: P0

Question: And the F value ([4]; TA98, +S9, 125 μg/well)?
Answer: 1.03

Question: And the Growth of lawn ([4]; TA98, +S9, 125 μg/well)?
Answer: 4 (A score of 4 signified full '100%' growth)

Question: And the “Number of revertants MEAN” value ([4]; TA98, +S9, 250 μg/well)?
Answer: 13.00

Question: What about the solubility ([4]; TA98, +S9, 250 μg/well) of the same molecule?
Answer: P1 (0~20% growth of crystals)

Question: What about the F value ([4]; TA98, +S9, 250 μg/well) of the same molecule?
Answer: 1.18

Question: What about the Growth of lawn ([4]; TA98, +S9, 250 μg/well) of the same molecule?
Answer: 4 (A score of 4 signified full '100%' growth)

Question: What about the “Number of revertants MEAN” value ([4]; TA98, +S9, 500 μg/well) of the same molecule?
Answer: 10.00

Question: What about the solubility ([4]; TA98, +S9, 500 μg/well) of the same molecule?
Answer: P2 (20%~60% growth of crystals)

Question: And the F value ([4]; TA98, +S9, 500 μg/well)?
Answer: 0.91

Question: What about the Growth of lawn ([4]; TA98, +S9, 500 μg/well) of the same molecule?
Answer: 4 (A score of 4 signified full '100%' growth)

Question: What about the “Number of revertants MEAN” value ([4]; TA98, +S9, 1000 μg/well) of the same molecule?
Answer: 9.67

Question: And the solubility ([4]; TA98, +S9, 1000 μg/well)?
Answer: P3 (60%~100% growth of crystals)

Question: And the F value ([4]; TA98, +S9, 1000 μg/well)?
Answer: 0.88

Question: And the Growth of lawn ([4]; TA98, +S9, 1000 μg/well)?
Answer: 4 (A score of 4 signified full '100%' growth)

Question: And the “Number of revertants MEAN” value ([4]; TA98, -S9, 31.25 μg/well)?
Answer: 6.67

Question: What about the solubility ([4]; TA98, -S9, 31.25 μg/well) of the same molecule?
Answer: P0

Question: What about the F value ([4]; TA98, -S9, 31.25 μg/well) of the same molecule?
Answer: 0.91

Question: What about the Growth of lawn ([4]; TA98, -S9, 31.25 μg/well) of the same molecule?
Answer: 4 (A score of 4 signified full '100%' growth)

Question: What about the “Number of revertants MEAN” value ([4]; TA98, -S9, 62.5 μg/well) of the same molecule?
Answer: 8.67

Question: And the solubility ([4]; TA98, -S9, 62.5 μg/well)?
Answer: P0

Question: And the F value ([4]; TA98, -S9, 62.5 μg/well)?
Answer: 1.18

Question: What about the Growth of lawn ([4]; TA98, -S9, 62.5 μg/well) of the same molecule?
Answer: 4 (A score of 4 signified full '100%' growth)

Question: And the “Number of revertants MEAN” value ([4]; TA98, -S9, 125 μg/well)?
Answer: 7.33

Question: What about the solubility ([4]; TA98, -S9, 125 μg/well) of the same molecule?
Answer: P0

Question: What about the F value ([4]; TA98, -S9, 125 μg/well) of the same molecule?
Answer: 1.00

Question: And the Growth of lawn ([4]; TA98, -S9, 125 μg/well)?
Answer: 4 (A score of 4 signified full '100%' growth)

Question: And the “Number of revertants MEAN” value ([4]; TA98, -S9, 250 μg/well)?
Answer: 4.00

Question: What about the solubility ([4]; TA98, -S9, 250 μg/well) of the same molecule?
Answer: P1 (0~20% growth of crystals)

Question: What about the F value ([4]; TA98, -S9, 250 μg/well) of the same molecule?
Answer: 0.55

Question: What about the Growth of lawn ([4]; TA98, -S9, 250 μg/well) of the same molecule?
Answer: 4 (A score of 4 signified full '100%' growth)

Question: What about the “Number of revertants MEAN” value ([4]; TA98, -S9, 500 μg/well) of the same molecule?
Answer: 5.33

Question: What about the solubility ([4]; TA98, -S9, 500 μg/well) of the same molecule?
Answer: P2 (20%~60% growth of crystals)

Question: What about the F value ([4]; TA98, -S9, 500 μg/well) of the same molecule?
Answer: 0.73

Question: And the Growth of lawn ([4]; TA98, -S9, 500 μg/well)?
Answer: 4 (A score of 4 signified full '100%' growth)

Question: What about the “Number of revertants MEAN” value ([4]; TA98, -S9, 1000 μg/well) of the same molecule?
Answer: 3.33

Question: And the solubility ([4]; TA98, -S9, 1000 μg/well)?
Answer: P3 (60%~100% growth of crystals)

Question: What about the F value ([4]; TA98, -S9, 1000 μg/well) of the same molecule?
Answer: 0.45

Question: And the Growth of lawn ([4]; TA98, -S9, 1000 μg/well)?
Answer: 4 (A score of 4 signified full '100%' growth)
